Assay results reported in patent US12552748B2, “Pyridine (thio)amides as fungicidal compounds” (Bayer Aktiengesellschaft, priority 2020, dated 2026).
Marks after values point to notes of the source that are not given here.

Assay: physchem
Format: physicochemical
Description: Measurement of Log P values as provided herein was performed according to EEC directive 79/831 Annex V.A8 by HPLC (High Performance Liquid Chromatography) on reversed phase columns with the following methods: […] If more than one Log P value is available within the same method, all the values are given and separated by “+”. Calibration was done with straight-chain alkan2-ones (with 3 to 16 carbon atoms) with known Log P values (measurement of Log P values using retention times with linear interpolation between successive alkanones). Lambda-max-values were determined using UV-spectra from 200 nm to 400 nm and the peak values of the chromatographic signals

chromatographic logP | Compound | LogP
– | O=C(NCC(F)c1ccc(Cl)cc1Cl)c1cc(Cl)ncc1Oc1cccc(C(F)(F)F)c1 (stereo not drawn) [Compound I-010] | 4.74^[a]
– | COc1cccc(Oc2cnc(Cl)cc2C(=O)NCC(F)c2ccc(Cl)cc2Cl)c1 (racemic) [Compound I-041] | 4.51^[a]
– | Cc1cccc(Oc2cnc(Cl)cc2C(=O)O)c1 [Compound 1-008] | 2.60^[a]
– | COc1cccc(Oc2cnc(Cl)cc2C(=O)NCC(F)(F)c2ccc(C)cc2Cl)c1 [Compound I-048] | 3.67^[a]
– | O=C(NCC(F)c1ccc(Cl)cc1Cl)c1cc(Cl)ncc1Oc1cccc(Cl)c1 (racemic) [Compound I-035] | 4.80^[a]
– | Cc1ccc(C(F)(F)CNC(=O)c2cc(Cl)ncc2Oc2cncc(C(F)(F)F)c2)c(C)c1 [Compound I-163] | 4.15^[a]
– | CO/N=C(/C)c1cc(C(=O)NCCc2ccc(C)cc2C)c(Oc2cccc(C(F)(F)F)c2)cn1 [Compound I-094] | 4.85^[a]
– | Cc1ccc(CCNC(=O)c2cc(C(F)(F)F)ncc2Oc2cccc(C(F)(F)F)c2)c(C)c1 [Compound I-208] | 5.04^[a]
– | Cc1ccc(CCNC(=O)c2cc(Cl)ncc2Oc2ccc(C(F)(F)F)cc2)c(C)c1 [Compound I-240] | 4.77^[a]
– | COc1c(Cl)ncc(Oc2cccc(C(F)(F)F)c2)c1C(=O)NCC(F)(F)c1ccc(C)cc1C [Compound I-199] | 4.74^[a]
– | Cc1ccc(CCNC(=O)c2cc(Cl)nc(Cl)c2Oc2cccc(C(F)(F)F)c2)c(C)c1 [Compound I-158] | 5.14^[a]
– | Cc1ccc(CCNC(=O)c2cc(Cl)ncc2Oc2cccc(I)c2)c(C)c1 [Compound I-141] | 5.01^[a]
– | CCc1ccc(C(F)(F)CNC(=O)c2cc(CC)ncc2Oc2cccc(C3CC3)c2F)c(Cl)c1 [Compound I-187] | 5.45^[a]
– | C#Cc1cc(C(=O)NC(C)c2cn(C)c3cc(Cl)ccc23)c(Oc2cccc(C(F)(F)F)c2)cn1 (stereo not drawn) [Compound I-031] | 4.27^[a]
– | CNc1ncc(Oc2cccc(C(F)(F)F)c2)c(C(=O)NCC(F)(F)c2ccc(C)cc2C)c1I [Compound I-218] | 4.55^[a]
– | O=C(NCC(F)c1ccc(Cl)cc1Cl)c1cc(Cl)nc(F)c1Oc1cccc(C(F)(F)F)c1 (racemic) [Compound I-091] | 5.08^[a]
– | O=C(NCC(F)c1ccc(Cl)cc1Cl)c1cc(C2CC2)ncc1Oc1cccc(C(F)(F)F)c1 (stereo not drawn) [Compound I-024] | 4.96^[a]
– | O=C(O)c1cc(Cl)ncc1Oc1cccc(C(F)(F)F)c1 [Compound 1-001] | 2.84^[a]
– | Cc1ccc(C(F)(F)CNC(=O)c2cc(C)ncc2Oc2cccc(Cl)c2)c(C)c1 [Compound I-058] | 4.13^[a]
– | Cc1ccc(CCNC(=O)c2cc(Cl)nc(C#N)c2Oc2cccc(C(F)(F)F)c2)c(C)c1 [Compound I-225] | 4.58^[a]
– | C#Cc1cc(C(=O)NCC(F)(F)c2ccc(C)cc2C)c(Oc2cccc(C(F)(F)F)c2)cn1 [Compound I-032] | 4.39^[a]
– | O=C(NCCc1ccc(C(F)(F)F)cn1)c1cc(Cl)ncc1Oc1cccc(C(F)(F)F)c1 [Compound I-107] | 3.91^[a]
– | Cc1ccc(CCNC(=O)c2cc(Cl)ncc2Oc2ccc3ccccc3c2)c(C)c1 [Compound I-168] | 5.03^[a]

chromatographic logP | Compound | LogP
– | O=C(NCC(F)(F)c1ccc(Br)cc1Cl)c1cc(Cl)ncc1Oc1cccc(C(F)(F)F)c1 [Compound I-001] | 5.00^[a]
– | COc1cc(C(=O)NCCc2ccc(C)cc2C)c(Oc2cccc(C(F)(F)F)c2)cn1 [Compound 1-160] | 4.69^[a]
– | COc1c(Cl)ncc(Br)c1C(=O)NCC(F)(F)c1ccc(C)cc1C [Compound 3-007] | 3.75^[a]
– | O=C(NCC(F)(F)c1ccc(Cl)cc1Cl)c1cc(Cl)ncc1Oc1cccc(C(F)(F)F)c1 [Compound I-009] | 4.82^[a]
– | COc1cc(C(=O)NCC(F)(F)c2ccc(C)cc2C)c(Oc2cccc(C(F)(F)F)c2)cn1 [Compound I-004] | 4.77^[a]
– | O=C(NCC(F)(F)c1ccc(Br)cc1Cl)c1cc(Cl)ncc1Oc1cccc(C2CC2)c1F [Compound I-210] | 5.31^[a]
– | Cc1ccc(CCNC(=O)c2cc(Cl)ncc2Oc2cccc(Cl)c2F)c(C)c1 [Compound I-128] | 4.71^[a]
– | Cc1cc(C(=O)NCC(F)c2ccc(Cl)cc2Cl)c(Oc2cccc(C(F)F)c2)cn1 (racemic) [Compound I-055] | 3.78^[a]
– | C=Cc1cc(C(=O)NCC(F)(F)c2ccc(C)cc2C)c(Oc2cccc(C3CC3)c2)cn1 [Compound I-072] | 5.05^[a]
– | Cc1ccc(CCNC(=O)c2cc(C(C)O)ncc2Oc2cccc(C(F)(F)F)c2)c(C)c1 (stereo not drawn) [Compound I-112] | 3.67^[a]
– | N#Cc1nc(Cl)cc(C(=O)O)c1Oc1cccc(C(F)(F)F)c1 [Compound 1-016] | 2.40^[a]
– | Cc1ccc(CCNC(=O)c2cc(Cl)ncc2Oc2cccc(C(F)F)c2)c(C)c1 [Compound I-039] | 4.30^[a]
– | Cc1ccc(C(F)CNC(=O)c2cc(C)ncc2Oc2cccc(Cl)c2)c(Cl)c1 (racemic) [Compound I-054] | 3.98^[a]
– | Cc1ccc(CCNC(=O)c2cc(C)ncc2Oc2cccc(C(F)F)c2)c(C)c1 [Compound I-183] | 3.56^[a]
– | C#Cc1cc(C(=O)NCC(F)c2ccc(Cl)cc2Cl)c(Oc2cccc(C(F)(F)F)c2)cn1 (racemic) [Compound I-189] | 4.41^[a]
– | C#Cc1cc(C(=O)NCCc2ccc(C)cc2C)c(Oc2cccc(C(F)(F)F)c2)cn1 [Compound I-191] | 4.34^[a]
– | COCCc1ccc(C(F)(F)CNC(=O)c2cc(CCOC)ncc2Oc2cccc(C(F)F)c2)c(Cl)c1 [Compound I-267] | 3.74^[a]
– | Cc1cccc(Oc2cnc(C)cc2C(=O)NCCc2ccc(C)cc2C)c1 [Compound I-255] | 3.86^[a]
– | COc1cccc(Oc2cnc(C)cc2C(=O)NCCc2ccc(C)cc2C)c1 [Compound I-180] | 3.50^[a]
– | O=C(O)c1cc(Cl)ncc1Oc1cccc(C2CC2)c1 [Compound 1-010] | 2.87^[a]
– | Cc1cc(C(=O)NCC(F)c2ccc(Cl)cc2Cl)c(Oc2cccc(Cl)c2)cn1 (racemic) [Compound I-053] | 4.12^[a]
– | O=C(NCC(F)c1ccc(Cl)cc1Cl)c1cc(C2CC2)ncc1Oc1cccc(C2CC2)c1 (stereo not drawn) [Compound I-253] | 5.42^[a]
– | O=C(NCCc1ncc(Cl)cn1)c1cc(Cl)ncc1Oc1cccc(C(F)(F)F)c1 [Compound I-099] | 3.34^[a]

chromatographic logP | Compound | LogP
– | Cc1ccc(CCNC(=O)c2cc(Cl)ncc2Oc2cccc(C(F)(F)F)c2)c(C)c1 [Compound I-002] | 4.73^[a]
3.59 | COC(=O)c1cc(C(C)=O)ncc1Oc1cccc(C(F)(F)F)c1 [Compound 1-012, methyl 2-acetyl-5-[3-(trifluoromethyl)phenoxy]pyridine-4-carboxylate] | –
– | O=C(NCC(F)(F)c1ccc(-c2ccncc2Cl)cc1Cl)c1cc(-c2ccncc2Cl)ncc1Oc1cccc(C(F)(F)F)c1 [Compound I-172] | 4.33^[a]
– | Cc1ccc(CCNC(=O)c2cc(C)ncc2Oc2cccc(C3CC3)c2F)c(C)c1 [Compound I-262] | 4.32^[a]
– | Cc1ccc(CCNC(=O)c2cc(C#N)ncc2Oc2cccc(C(F)(F)F)c2)c(C)c1 [Compound I-059] | 4.39^[a]
– | C[Si](C)(C)C#Cc1cc(C(=O)NCC(F)c2ccc(Cl)cc2Cl)c(Oc2cccc(C(F)(F)F)c2)cn1 (racemic) [Compound I-176] | 6.01^[a]
– | Cc1cc(C(=O)NC(C)c2cn(C)c3ccccc23)c(Oc2cccc(C(F)(F)F)c2)cn1 (stereo not drawn) [Compound I-020] | 3.64^[a]
– | Cc1ccc(CCNC(=O)c2cc(Cl)ncc2Oc2cccc(C3CC3)c2F)c(C)c1 [Compound I-062] | 5.11^[a]
– | COc1ccc(CCNC(=O)c2cc(Cl)ncc2Oc2cccc(C(F)(F)F)c2)c(OC)c1 [Compound I-008] | 4.06^[a]
– | N#Cc1ccc(C(F)(F)CNC(=O)c2cc(Cl)ncc2Oc2cccc(C(F)F)c2)c(Cl)c1 [Compound I-156] | 3.87^[a]
– | N#Cc1nc(Cl)cc(C(=O)NCC(F)(F)c2ccc(Br)cc2Cl)c1Oc1cccc(C(F)(F)F)c1 [Compound I-215] | 4.81^[a]
– | Cc1cc(C(F)F)ccc1C(F)CNC(=O)c1cc(Cl)ncc1Oc1cccc(C(F)(F)F)c1 (racemic) [Compound I-080] | 4.40^[a]
– | O=C(NCC(F)c1ccc(Br)cc1Cl)c1cc(Cl)ncc1Oc1cccc(C(F)(F)F)c1 (stereo not drawn) [Compound I-012] | 4.85^[a]
– | N#CN(CCc1ccc(Cl)cc1)C(=O)c1cc(Cl)ncc1Oc1cccc(C(F)(F)F)c1 [Compound I-207] | 4.89^[a]
– | COc1c(Cl)ncc(Oc2cccc(Cl)c2)c1C(=O)NCC(F)(F)c1ccc(C)cc1C [Compound I-200] | 4.62^[a]
– | O=C(NCC(F)(F)c1ccc(Cl)cc1)c1cc(Cl)ncc1Oc1cccc(C(F)(F)F)c1 [Compound I-011] | 4.41^[a]
– | Cc1ccc(C(F)CNC(=O)c2cc(Cl)ncc2Oc2cccc(C(F)(F)F)c2)c(Cl)c1 (racemic) [Compound I-083] | 4.78^[a]
– | COc1cccc(Oc2cnc(C)cc2C(=O)NCC(F)c2ccc(Cl)cc2Cl)c1 (stereo not drawn) [Compound I-219] | 3.75^[a]
– | CCc1cc(C(=O)NCC(F)(F)c2ccc(C)cc2C)c(Oc2cccc(C3CC3)c2)cn1 [Compound I-212] | 4.90^[a]
– | Cc1ccc(CCNC(=O)c2cc(Cl)ncc2Oc2ccc(Cl)c(C(F)(F)F)c2)c(C)c1 [Compound I-254] | 5.09^[a]
– | O=C(NCC(F)(F)c1ccc(-c2ccncc2Cl)cc1Cl)c1cc(Cl)ncc1Oc1cccc(C(F)(F)F)c1 [Compound I-266] | 4.51^[a]
– | CC(=O)c1ccc(C(F)(F)CNC(=O)c2cc(Cl)ncc2Oc2cccc(C(F)F)c2)c(Cl)c1 [Compound I-119] | 3.81^[a]
– | Cc1ccc(CCNC(=O)c2cc(C3CCCC3)ncc2Oc2cccc(C(F)(F)F)c2)c(C)c1 [Compound I-122] | 5.57^[a]
